System: PSMA
Settings: 2 nM DHT, 48 h, 5% charcoal-stripped FBS RPMI-1640, Western blot

C[C@]12CCC(=O)C[C@@H]1CC[C@@H]1[C@@H]2CC[C@]2(C)[C@@H](O)CC[C@@H]12 [DHT, 5-α-dihydrotestosterone]
PSMA expression in LNCaP cells: substantially inhibited

— paper PMC4406878 (Pharmaceutical research, 2011)
